Biological target: Presenilin-1 (Homo sapiens, UniProt P49768)
Test: Modulation of human gamma-secretase presenilin-1 subunit expressed in CHO cells coexpressing human APP assessed as decrease in amyloid beta 42 generation after 24 hrs by ELISA

**Q.** `CCCCCCCCOC(=O)C1(C)CCc2c(C)c(OCC(=O)O)c(C)c(C)c2O1` (stereo unspecified) was tested. Which IC50 did it give?
**A.** Its IC50 is 31.6 µM.

Source: BindingDB's records for doi:10.1016/j.bmcl.2013.04.070 (2013)
